Measured values taken from PMC5122889, “Sigma-1 Receptor Agonism Promotes Mechanical Allodynia After Priming the Nociceptive System with Capsaicin” (Scientific Reports, 2016).
Counter-ions that a name gives are not always drawn. Like-named read-outs stand apart in the source and are kept apart here.

Assays:
in vitro [1] = assay: in vitro; parameters: metabolic stability in liver microsomes with NADPH, UHPLC-MS/MS quantitation of parent compound; conditions: for remaining at 1 h, 1 µM: pH 7.4, liver microsomes, read-out: % parent compound remaining at 1 h; for half-life at 1 µM / microsomal CLint at 1 µM: pH 7.4, liver microsomes; for microsomal CLint at 1 µM: read-out: Cl int (µL/min/mg protein)
Description: (§1) Incubation of the test compounds in mouse or human liver microsomes (Xenotech, Lenexa, KS, USA) was done with a previously described method[55] with modifications. We tested the metabolic stability of PRE-084 and PGB, the latter of which was used as a control because of its poor hepatic metabolism. Briefly, the drugs were incubated in 96-well plates at a concentration of 1 μM and at 37 °C during 1 h under standard incubation conditions: sodium-potassium phosphate buffer (50 mM, pH 7.4), MgCl2 (3 mM), the NADPH-regenerating system and cytochrome P450 content (0.3 nmol/mL). Aliquots of the reaction mixture were obtained at 0, 10, 20, 40 and 60 min with an equal volume of cold acetonitrile. The assay was done in a robotic [compound left out] handling system (Freedom Evo Tecan, Männedorf, Switzerland). Upon centrifugation of the resulting mixture, supernatants were analyzed with a generic ultra-high performance [compound left out] chromatography–tandem mass spectrometry method. For the in vitro metabolic stability in liver microsomes, Ln-linear plots of the percentage of compound remaining based on chromatographic peak area versus time were generated, and the slope was calculated by linear fitting of the curve. The in vitro metabolic t1/2 was estimated with the equation 0.693/k where k is the biotransformation rate constant and corresponds to the slope of the ln-linear curve. Liver microsome Cl int was calculated with the equation [drawing 1]

in vitro [2] = assay: in vitro; parameters: metabolic stability in mouse liver microsomes with NADPH-regenerating system, parent compound by UHPLC-MS/MS; conditions: mouse liver microsomes
Description: as §1

in vitro [3] = assay: in vitro; parameters: metabolic stability in human liver microsomes with NADPH-regenerating system, parent compound by UHPLC-MS/MS; conditions: human liver microsomes
Description: as §1

sigma-1 receptor = target: T1, sigma-1 receptor (Mus musculus, UniProt O55242); assay: [3H](+)-pentazocine competition radioligand binding in mouse brain membranes
T1 construct: gene Sigmar1; native receptor in wild-type mouse brain crude synaptosomal membranes (P2 fraction)
T1 sequence (O55242 whole entry): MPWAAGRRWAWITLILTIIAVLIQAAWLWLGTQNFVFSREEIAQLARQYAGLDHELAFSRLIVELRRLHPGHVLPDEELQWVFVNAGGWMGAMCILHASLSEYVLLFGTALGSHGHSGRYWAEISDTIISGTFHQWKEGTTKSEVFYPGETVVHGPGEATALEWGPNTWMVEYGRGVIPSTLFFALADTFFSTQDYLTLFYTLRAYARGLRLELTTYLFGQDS

SMILES	remaining at 1 h, 1 µM (in vitro [1]; human liver microsomes)	remaining at 1 h, 1 µM (in vitro [1]; mouse liver microsomes)	half-life at 1 µM (in vitro [1]; human liver microsomes)	microsomal CLint at 1 µM (in vitro [1]; human liver microsomes)	half-life at 1 µM (in vitro [1]; mouse liver microsomes)	microsomal CLint at 1 µM (in vitro [1]; mouse liver microsomes)	remaining at 1 h, 1 µM (in vitro [2]; pH 7.4, liver microsomes, read-out: % parent compound remaining at 1 h (mouse))	microsomal CLint at 1 µM (in vitro [2]; pH 7.4, liver microsomes, read-out: Cl int (mouse))	half-life at 1 µM (in vitro [2]; pH 7.4, liver microsomes, read-out: t1/2 (mouse))	remaining at 1 h, 1 µM (in vitro [3]; pH 7.4, liver microsomes, read-out: % parent compound remaining at 1 h (human))	microsomal CLint at 1 µM (in vitro [3]; pH 7.4, liver microsomes, read-out: Cl int (human))	half-life at 1 µM (in vitro [3]; pH 7.4, liver microsomes, read-out: t1/2 (human))	IC50 (sigma-1 receptor)
CC(C)C[C@H](CN)CC(=O)O [Pregabalin]	95 ± 2.96%	97 ± 2.67%	17.9 ± 10.8 h	2.3 ± 0.94 µL/min/mg	10 ± 3.03 h	4.5 ± 1.2 µL/min/mg							
O=C(OCCN1CCOCC1)C1(c2ccccc2)CCCCC1 [PRE, 2-(4-morpholinethyl)1-phenylcyclohexanecarboxylate) hydrochloride]							0%	949 ± 203 µL/min/mg	3 ± 0.67 min	4 ± 0.58%	103 ± 5 µL/min/mg	0.217 ± 0.00967 h	188 ± 18.8 nM
